Test results: US4578395A, “Certain aralkylaminoalkyl esters of 1,4 dihydropyridines as antihypertensive” (Teijin Limited, priority 1983, dated 1986)
Counter-ions that a name gives are not always drawn.

Columns and labels:
conscious rats = assay: Antihypertensive activity by oral administration in conscious rats; type: in vivo, Male Wistar rats; settings: 10 mg/kg oral
Procedure: When one hour or more passed after the rats were aroused, they were administered the test compound orally.
The blood pressure in the femoral artery was recorder and changes in the mean blood pressure were obtained from the following equation. [formula]

[1] = tested on: SHR (Spontaneously Hypertensive Rats); assay: Antihypertensive activity in SHR; type: in vivo, Male SHR (Spontaneously Hypertensive Rats); settings: no anesthesia
Procedure: Male SHR (14 to 16 weeks old) fasted for more than 16 hours were used. […] When one hour or more passed after the rats woke up out of the ether, they were administered the test compound orally. The blood pressure was measured with the pressure transducer via the catheter inserted into the femoral artery.
The test compound was dissolved in a small quantity of ethanol and diluted with water to be adjusted for administration.
Changes in the mean blood pressure were obtained from the equation mentioned below. The Basic and Clinical Study, vol. 14, p. 4495 (1980) is a useful literature to be referred to for making this kind of experiment. [formula]

mean blood pressure = assay: Action on mean blood pressure in anesthetized dog; type: in vivo, male beagle dog; settings: 10 μg/kg i.v.
Procedure: (§1) A male beagle dog weighing about 10 kg was anesthetized with sodium pentobarbital (35 mg/kg i.v.). The test compound was dissolved in a small quantity of ethanol, diluted with an isotonic sodium chloride solution, and was injected into the right femoral vein.
The mean blood pressure (MBP) was measured with the pressure transwer via the cannula inserted into the right femoral artery of the male beagle dog. The changes in the blood pressure after the administration of the test compound are shown in percentages in Table 5.

myocardium = assay: Action on myocardium (Max dLVP/dt) in anesthetized dog; type: in vivo, male beagle dog; settings: 10 μg/kg i.v.
Procedure: as §1
The left ventricular pressure (LVP) was measured with the pressure transducer via the cannula which was inserted from the left common carotid artery into the left ventricle and the recorded pressure was differentiated to calculate the max (dLVP/db), thus measuring the pharmacological action of the test compound on the myocardium. […] The Basic and Clinical Study, vol. 14, 4477 (1980) is a useful literature to be consulted with for making this kind of experiment. It is apparent from Table 6 that the compound of this invention has less exciting action on the myocardium than nicardipine.

[2] = tested on: cerebral blood vessels (common carotid artery); assay: Action on cerebral blood vessels (carotic blood flow) in anesthetized dog; type: in vivo, male beagle dog; settings: 3 μg/kg i.v.
Procedure: as §1
(§2) The carotic blood flow (CBF) and the femoral blood flow (FBF) were measured with the electromagnetic blood flowmeter (MFV-1200 made by Japan Photoelectric Co., Ltd.) via probe for measuring the blood flow volume set in the right common carotid artery and the left femoral artery of the male beagle dog respectively.

Ca^++ contraction = assay: Activity of calcium ion blocking action (thoracic aorta strips); parameters: species or system male wister rat
Procedure: Spillay cut strips of thoracic arota were obtained from male wister rat and mounted in K-depalarized solution. 30-40 min. after treatment of compound (140) hydrochloride various concentration of Ca^++ were applied and concentration-response curve of calcium ion (Ca^++) was obtained.

platelet aggregation = assay: In vitro inhibitory activity of platelet aggregation; type: cell-based, male Hartley guinea pigs; settings: AA 75 μM; for inhibition at 100 µM: Cavia porcellus, Platelet, Conc. 100 μM
Procedure: The in vitro platelet aggregation inhibiting activities of the compounds of the invention were examined by using guinea pigs. Blood was withdrawn by cardiac puncture from male Hartley guinea pigs weighing […]. A mixture of a 3.8% trisodium citrate solution and the blood in a ratio of 1:9 was centrifuged at a speed of 800 rpm for 10 minutes. The upper layer was separated as platelet-rich plasma (PRP). The lower layer was further centrifuged at a separated as platelet-poor plasma (PPP). The number of platelets was adjusted to 5×10^5 /μl to 6×10^5 /μl by filuting the PRP with PPP. 25 microliters of the test compounds prepared as shown below was added in an amount of 25 microliters of PRP after the adjustment, and the mixture was pre-incubated at 37° C. for 2 minutes, and then 75 μM (final) of AA was added. By using an aggregometer (37° C., 1,100 rpm), changes in transmission were recorded.
The test compound was dissolved in ethanol to a concentration of 10 mg/ml. When its activity was measured, it was used after being diluted with phosphate buffer (pH 7.4). Furthermore, after dilution with the buffer, the test compound was left to stand at 0° C. for 4 hours, and the activity of the test compound was similarly measured.
The rate of inhibition of platelet aggregation was determined from the following equation. [formula]

[3] = prior art; cited from earlier work
anesthetized rats = assay: Hypotensive activity by intravenous administration in anesthetized rats (Example 23); type: in vivo, Male Wistar rats
Procedure: Male Wistar rats weighing about 250 g were used. They were anesthetized with urethane (500 mg/kg) and α-chloralose (100 mg/kg) intraperitoneal injection.
The test compound was dissolved in a small quantity of ethanol and the solution, which was then diluted with physiological saline to have a final concentration of ethanol kept at 5% or lower, was intravenously injected through a catheter inserted into the femoral vein.
The blood pressure was recorded with the pressure transducer via the catheter inserted into the common carotid artery of the rats.
Hypotensive activity of the test compound was indicated by the dose (ED20 μ/kg) required for decreasing the mean blood pressure by 20% as compared with the mean blood pressure before the administration.
To determine the duration of the hypotensive action of the test compound, half-life of hypotensive action T^1 /2) was measured.

[4] = tested on: peripheral blood vessels (femoral artery); assay: Action on peripheral blood vessels (femoral blood flow) in anesthetized dog; type: in vivo, male beagle dog; settings: 3 μg/kg i.v.
Procedure: as §1, §2

[5] = Light stability in methanol solution; type: physicochemical; settings: light, read-out: Remaining percentage
Procedure: 1 mg of compound (156) hydrochloride was dissolved in 100 ml of methanol. The solution was placed in a transparent glass test tube, and after the test tube was tightly stoppered, it was allowed to stand by the window of the laboratory. Part of the solution was taken at regular intervals and subjected to high performance liquid chromatograph to determined the remaining quantity of compound (156) hydrochloride contained in the solution. The same experiment was conducted with nicardipine hydrochloride as the control.

With `COC(=O)C1=C(C)NC(C)=C(C(=O)OCC(C)(C)CN(C)Cc2ccccc2)C1c1cc([N+](=O)[O-])ccc1F` (stereo not shown) [(140) hydrochloride, 3-(N-Benzyl-N-methylamino)-2,2-dimethylpropyl methyl 2,6-dimethyl-4-(2-fluoro-5-nitrophenyl)-1,4-dihydropyridine-3,5-dicarboxylate] the “Changes in mean blood pressure” value (conscious rats; after 30 min) was -36.7 mmHg, the “Changes in mean blood pressure” value (conscious rats; after 60 min) was -35.4 mmHg and the “Changes in mean blood pressure” value (conscious rats; after 90 min) was -36.3 mmHg. The “Changes in mean blood pressure” value (conscious rats; after 2 hr) was -36.2 mmHg, the “Changes in mean blood pressure” value (conscious rats; after 3 hr) was -33.8 mmHg and the “Changes in mean blood pressure” value (conscious rats; after 5 hr) was -32.6 mmHg. The “Changes in mean blood pressure” value (conscious rats; after 7 hr) was -31.7 mmHg, the “Changes in MBP” value ([1]; 3 mg/kg oral, 30 min.) was -68 ± 2 mmHg and the “Changes in MBP” value ([1]; 3 mg/kg oral, 60 min.) was -69 ± 4 mmHg. The “Changes in MBP” value ([1]; 3 mg/kg oral, 90 min.) was -65 ± 2 mmHg, the “Changes in MBP” value ([1]; 3 mg/kg oral, 2 hr.) was -65 ± 2 mmHg and the “Changes in MBP” value ([1]; 3 mg/kg oral, 3 hr.) was -65 ± 2 mmHg. The “Changes in MBP” value ([1]; 3 mg/kg oral, 5 hr.) was -55 mmHg, the “Changes in MBP” value ([1]; 3 mg/kg oral, 7 hr.) was -39 ± 5 mmHg and the “Changes in MBP” value (mean blood pressure; 0.5 min.) was -6 ± 1%. The “Changes in MBP” value (mean blood pressure; 1 min.) was -10 ± 1%, the “Changes in MBP” value (mean blood pressure; 2 min.) was -15 ± 1% and the “Changes in MBP” value (mean blood pressure; 5 min.) was -20 ± 2%. For the same compound, the “Changes in MBP” value (mean blood pressure; 10 min.) was -23 ± 2%, the “Changes in MBP” value (mean blood pressure; 15 min.) was -28 ± 3% and the “Changes in Max dLVP/dt” value (myocardium; 0.5 min.) was 0 ± 2%. For the same compound, the “Changes in Max dLVP/dt” value (myocardium; 1 min.) was “+2 ± 2%”, the “Changes in Max dLVP/dt” value (myocardium; 2 min.) was “+2 ± 3%” and the “Changes in Max dLVP/dt” value (myocardium; 5 min.) was -6 ± 3%. The “Changes in Max dLVP/dt” value (myocardium; 10 min.) was “+6 ± 4%”, the “Changes in Max dLVP/dt” value (myocardium; 15 min.) was “+4 ± 4%” and the “Changes in CBF” value ([2]; 0.5 min.) was “+7%”. The “Changes in CBF” value ([2]; 1 min.) was “+14%”, the “Changes in CBF” value ([2]; 2 min.) was “+17%” and the “Changes in CBF” value ([2]; 5 min.) was “+22%”. The “Changes in CBF” value ([2]; 10 min.) was “+22%”, the IC50 (Ca^++ contraction; 30-40 min after treatment, K-depolarized solution, read-out: 50% inhibited concentration to Ca^++ contraction) was 0.1 nM and the inhibition at 100 µM (platelet aggregation) was -1.1 ± 1.4%.

In the case of `CCOC(=O)C1=C(C)NC(C)=C(C(=O)OC)C1c1cccc(Cl)c1Cl` (stereo not shown) [Felodipine, 4-(2,3-dichlorophenyl)-2,6-dimethyl-1,4-dihydropyridine-3,5-dicarboxylic acid-3-methyl ester-5-ethyl ester, reference compound], the “Changes in mean blood pressure” value (conscious rats; after 30 min) is reported as -34 mmHg, the “Changes in mean blood pressure” value (conscious rats; after 60 min) is reported as -27 mmHg and the “Changes in mean blood pressure” value (conscious rats; after 90 min) is reported as -24 mmHg. For the same compound, the “Changes in mean blood pressure” value (conscious rats; after 2 hr) was -22 mmHg, the “Changes in mean blood pressure” value (conscious rats; after 3 hr) was -17 mmHg and the “Changes in mean blood pressure” value (conscious rats; after 5 hr) was -10 mmHg. The “Changes in mean blood pressure” value (conscious rats; after 7 hr) was -5 mmHg and the “solubility in water” value [3] was “very purely soluble in water”.

In the case of `COC(=O)C1=C(C)NC(C)=C(C(=O)OCCN(C)Cc2ccccc2)C1c1cccc([N+](=O)[O-])c1` (stereo not drawn) [Nicardipine hydrochloride, 4-(3-nitrophenyl)-2,6-dimethyl-1,4-dihydropyridine-3,5-dicarboxylic acid-3-methyl ester-5-β-(N-benzyl-N-methylamino) ethyl hydrochloride, reference compound], the ED20 (anesthetized rats; Rattus norvegicus, iv, anesthetized Wistar rats about 250 g, read-out: ED20 (dose decreasing mean blood pressure by 20%)) is reported as 0.021 mg/kg, the “Duration T1/2 (half-life of hypotensive action)” value (anesthetized rats; i.v., dose 30) is reported as 4.2 min and the “Changes in mean blood pressure” value (conscious rats; after 30 min) is reported as -26.7 mmHg. For the same compound, the “Changes in mean blood pressure” value (conscious rats; after 60 min) was -19.2 mmHg, the “Changes in mean blood pressure” value (conscious rats; after 90 min) was -18.3 mmHg and the “Changes in mean blood pressure” value (conscious rats; after 2 hr) was -16.3 mmHg. The “Changes in mean blood pressure” value (conscious rats; after 3 hr) was -7.1 mmHg, the “Changes in mean blood pressure” value (conscious rats; after 5 hr) was “+1.3 mmHg” and the “Changes in mean blood pressure” value (conscious rats; after 7 hr) was “+2.5 mmHg”. For the same compound, the “Changes in MBP” value ([1]; 10 mg/kg oral, 30 min.) was -28 ± 13 mmHg, the “Changes in MBP” value ([1]; 10 mg/kg oral, 60 min.) was -29 ± 11 mmHg and the “Changes in MBP” value ([1]; 10 mg/kg oral, 90 min.) was -17 ± 14 mmHg. For the same compound, the “Changes in MBP” value ([1]; 10 mg/kg oral, 2 hr.) was -18 ± 9 mmHg, the “Changes in MBP” value ([1]; 10 mg/kg oral, 3 hr.) was -12 ± 8 mmHg and the “Changes in MBP” value ([1]; 10 mg/kg oral, 5 hr.) was -10 mmHg. For the same compound, the “Changes in MBP” value ([1]; 10 mg/kg oral, 7 hr.) was -11 ± 6 mmHg, the “time to peak of antihypertensive action after the administration” value (mean blood pressure) was “one” and the “Changes in MBP” value (mean blood pressure; 0.5 min.) was -17 ± 2%. The “Changes in MBP” value (mean blood pressure; 1 min.) was -18 ± 3%, the “Changes in MBP” value (mean blood pressure; 2 min.) was -16 ± 3% and the “Changes in MBP” value (mean blood pressure; 5 min.) was -11 ± 4%. The “Changes in MBP” value (mean blood pressure; 10 min.) was -7 ± 4%, the “Changes in MBP” value (mean blood pressure; 15 min.) was -8 ± 5% and the “Changes in Max dLVP/dt” value (myocardium; 0.5 min.) was “+5 ± 3%”. The “Changes in Max dLVP/dt” value (myocardium; 1 min.) was “+10 ± 7%”, the “Changes in Max dLVP/dt” value (myocardium; 2 min.) was “+38 ± 23%” and the “Changes in Max dLVP/dt” value (myocardium; 5 min.) was “+42 ± 24%”. The “Changes in Max dLVP/dt” value (myocardium; 10 min.) was “+31 ± 18%”, the “Changes in Max dLVP/dt” value (myocardium; 15 min.) was “+6 ± 11%” and the “time to peak of CBF after the administration” value [2] was “one”. The “Changes in CBF” value ([2]; 0.5 min.) was “+7%”, the “Changes in CBF” value ([2]; 1 min.) was “+14%” and the “Changes in CBF” value ([2]; 2 min.) was “+13%”. For the same compound, the “Changes in CBF” value ([2]; 5 min.) was “+5%”, the “Changes in CBF” value ([2]; 10 min.) was “+3%” and the “time to peak of FBF after the administration” value [4] was 2 min. For the same compound, the “Changes in FBF” value ([4]; 0.5 min.) was “+7 ± 7%”, the “Changes in FBF” value ([4]; 1 min.) was “+20 ± 9%” and the “Changes in FBF” value ([4]; 2 min.) was “+24 ± 0%”. For the same compound, the “Changes in FBF” value ([4]; 5 min.) was “+17 ± 10%”, the “Changes in FBF” value ([4]; 10 min.) was “+6 ± 0%” and the “50% inhibited concentration to Ca^++ contraction relative to compound (140) hydrochloride” value (Ca^++ contraction; as much as that of compound (140) hydrochloride) was “twice”. The “inhibitory activity of platelet aggregation” value (platelet aggregation; 100 μM) was “has inhibitory activity of platelet aggregation”, the inhibition at 100 µM (platelet aggregation) was 35.2 ± 9.4% and the remaining at 2 h ([5]; 2 hr.) was 98%. For the same compound, the remaining at 4 h ([5]; 4 hr.) was 87% and the remaining at 6 h ([5]; 6 hr.) was 78%.
